Values quoted from earlier work in publication PMC3124134 (Bioorganic & medicinal chemistry, 2010).

Tests used:
Sc ODCase = conditions: S. cerevisiae ODCase; in words
ODCase = conditions: read-out: inhibition constant (Ki); competitive inhibition of ODCase

SMILES	inhibition constants (Sc ODCase)	Ki (ODCase) [µM]
NC(=O)c1[nH]nc([C@@H]2O[C@H](COP(=O)(O)O)[C@@H](O)[C@H]2O)c1O [compound 8, 4-Hydroxy-5-(5-O-monophosphoryl-β-D-ribofuranos-1-yl)-1H-pyrazole-3-carboxamide]	low nanomolar range	–
COC(=O)C1=C(C)NC(C)=C(C(=O)OC)C1c1ccccc1[N+](=O)[O-] [nifedipine]	–	105
